The values that follow come from US12319689B2, “Methyl- and trifluoromethyl-containing disubstituted sulfonamide selective BCL-2 inhibitor” (CHIA TAI TIANQING PHARMACEUTICAL GROUP CO., LTD., priority 2019, dated 2025).

Series [1] concerns RS4;11 human acute lymphoblastic leukemia subcutaneous xenograft tumors. The experiment in a line: RS4;11 human acute lymphoblastic leukemia mouse subcutaneous tumor xenograft model. Format: in vivo, NOD/SCID mice. To be noted: 25 mg/kg single intragastric dose; Day 12 after the end of administration. Here is the method:
SPF female NOD/SCID mice (Shanghai Lingchang Biotech Co., Ltd.) were inoculated subcutaneously at the right side armpit with 1×10^7 RS4;11 cells (ATCC). When the mean tumor volume reached about 180 mm^3, the mice were divided into 3 groups according to the tumor size: vehicle, compound 1-1 (25 mg/kg) and compound 3-1 (25 mg/kg). The day of grouping was determined as d0. On d1, a single intragastric dose at a volume of 10 mL/kg was administered, and the animals were observed.
The calculation formula for tumor volume: Tumor volume (mm^3)=½×(a×b^2) (where a represents long diameter and b represents short diameter).
Relative tumor proliferation rate (T/C %) refers to the percentage of the relative tumor volume or tumor weight of the treatment and control groups at a certain time point. The calculation formula is as follows: T/C %=TRTV/CRTV×100% (TRTV: mean relative tumor volume (RTV) for treatment group; CRTV: mean RTV for vehicle control group; RTV=TVt/TV0, where TV0 is the tumor volume at grouping, TVt is the tumor volume after treatment).
Tumor growth inhibition rate (TGI %) is calculated according to the following formula: TGI %=(1−T/C)×100%. (T and C are the relative tumor volume (RTV) or tumor weight (TW) at a particular time point for the treatment and control groups, respectively).
The calculation formula for weight change rate (WCR) (%) is: WCR=(Wtt−Wt0)/Wt0×100%, where Wt0 is the body weight of the animal at grouping (i.e., d0), Wtt is the body weight of the animal at each measurement.
All experimental results are expressed as mean±SD (mean±standard deviation). The relative tumor volume of the treatment group was compared with that of the control group for any significant difference by T tests, wherein p<0.05 indicates a significant difference, and p<0.01 indicates a very significant difference.
Background: A xenograft is tissue or cells of one species grown in another, often human tumour cells in immunodeficient mice.

For series [2], the system named is RS4;11 cells. The experiment in a line: Inhibition of proliferation of RS4;11 human acute lymphocytic leukemia cells (CCK-8). The following applies: 72 h compound exposure, CCK-8, 5% serum. Type of series: cell-based. The procedure: RS4;11 cells (from ATCC) in logarithmic growth phase and good cell condition were added to a centrifuge tube and centrifuged at 1500 rpm for 3 min in a low speed centrifuge. The supernatant was discarded, and 5 mL of complete medium (RPMI basic medium+10% FBS) was added using a pipette for cell resuspension. The cells were counted using a cell counter, diluted with complete medium to a cell density of 2×10^5 cells/mL, and an equivalent amount of RPMI basic medium was added to adjust the serum concentration to 5% and the cell density to 1×10^5 cells/mL for plate seeding. The cells were seeded on a 96-well plate at 100 μL/well using a pipettor, and incubated in an incubator at 37° C., 5% CO2 with saturated humidity. After 24 h of incubation, compounds were loaded using a nanoliter pipettor, 2 duplicate wells were set for each concentration, and cells without compound were used as negative controls. […] Inhibition rate (%)=(mean value of negative control group−mean value of experimental group)/(mean value of negative control group−mean value of blank group)×100%. A dose-response curve was fitted by four-parameter analysis, with the logarithm of compound concentration serving as abscissa and inhibition rate serving as ordinate, so that IC50 was calculated (Table 1).

Series [3] concerns the target T1, BCL-2/BAK (Homo sapiens, UniProt P10415).
T1 construct: purchased Cisbio 63ADK000CB01PEG
Nature of the series: Inhibitory activity for BCL-2/BAK binding (Cisbio BCL-2/BAK (BH3) binding assay kit). The procedure: 500 nM Tag1-BCL-2 protein stock solution and 20 μM Tag2-BAK protein stock solution were diluted to 5 nM and 120 nM respectively with dilution buffer in kit (name: BCL-2/BAK (BH3) BINDING ASSAY KITS, cat. No.: 63ADK000CB01PEG, from Cisbio). 5 μL of Tag1-BCL-2 protein diluent was added to each well, then test compounds dissolved with DMSO were added to the wells with a nanoliter pipettor, allowing the final compound concentrations to be 200 nM to 0.0488 nM (4-fold gradient for 7 concentrations in total). Blank control wells (without enzyme) and negative control wells (with enzyme, plus vehicle DMSO) were set, and 2 replicate wells were set. Finally, 5 μL of Tag2-BAK protein diluent was added to each well, and the mixture was mixed well by centrifugation and incubated at 25° C. for 15 min. 100× anti-Tag1-Eu^3+ and 100× anti-Tag2-XL665 were both diluted to 1× working concentration with the detection buffer in the kit. Anti-Tag1-Eu^3+ and anti-Tag2-XL665 were mixed well in a 1:1 ratio, and the mixture was added to wells at 5 μL/well, and incubated at 25° C. for 2 h or more. The plate was read using a PE Envision multi-functional microplate reader ([…], emission: 665 nm) and IC50 (shown in Table 2) was calculated by four-parameter fitting.

Series [4] concerns the target T2, BCL-XL/BAK (Homo sapiens, UniProt Q07817).
T2 construct: purchased Cisbio 63ADK000CB04PEG
The experiment in a line: Inhibitory activity for BCL-XL/BAK binding (Cisbio BCL-XL/BAK (BH3) binding assay kit). Here is the method:
300 nM Tag1-BCL-XL protein stock solution and 10 μM Tag2-BAK protein stock solution were diluted to 2 nM and 80 nM respectively with dilution buffer in kit (name: BCL-XL/BAK (BH3) BINDING ASSAY KITS, cat. No.: 63ADK000CB04PEG, from Cisbio). 5 μL of Tag1-BCL-XL protein diluent was added to each well, then different test compounds dissolved with DMSO were added to the wells with a nanoliter pipettor, allowing the final compound concentrations to be 2000 nM to 0.488 nM (4-fold gradient for 7 concentrations in total). Blank control wells (without enzyme) and negative control wells (with enzyme, plus vehicle DMSO) were set, and 2 replicate wells were set. Finally, 5 μL of Tag2-BAK protein diluent was added to each well, and the mixture was mixed well by centrifugation and incubated at 25° C. for 15 min. 100× anti-Tag1-Eu^3+ and 100× anti-Tag2-XL665 were both diluted to 1× working concentration with the detection buffer in the kit. Anti-Tag1-Eu^3+ and anti-Tag2-XL665 were mixed well in a 1:1 ratio, and the mixture was added to wells at 5 μL/well, and incubated at 25° C. for 2 h or more. The plate was read using a PE Envision multi-functional microplate reader ([…], emission: 665 nm) and IC50 (shown in Table 2) was calculated by four-parameter fitting.

In general, T/C refers to the ratio of treated to control. As usually defined, the TGI is how far tumour growth fell short of that in controls. The term IC50 denotes the concentration at which inhibition is half-maximal.

T2 sequence (Q07817 whole entry): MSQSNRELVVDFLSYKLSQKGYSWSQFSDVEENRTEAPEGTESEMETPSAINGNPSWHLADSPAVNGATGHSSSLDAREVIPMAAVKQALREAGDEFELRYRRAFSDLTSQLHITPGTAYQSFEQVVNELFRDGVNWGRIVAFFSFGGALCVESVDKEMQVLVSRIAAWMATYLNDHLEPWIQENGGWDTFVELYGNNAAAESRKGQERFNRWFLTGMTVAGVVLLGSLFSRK
T1 sequence (P10415 whole entry): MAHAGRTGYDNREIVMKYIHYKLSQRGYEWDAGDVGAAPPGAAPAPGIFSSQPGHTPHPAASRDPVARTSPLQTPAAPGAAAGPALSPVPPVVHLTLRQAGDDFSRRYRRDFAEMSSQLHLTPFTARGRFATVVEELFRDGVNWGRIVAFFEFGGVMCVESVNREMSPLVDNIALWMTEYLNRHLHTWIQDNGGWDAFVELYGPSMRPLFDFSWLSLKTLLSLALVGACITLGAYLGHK

As to `Cc1cc(C(F)(F)F)ccc1C1=C(CN2CCN(c3ccc(C(=O)NS(=O)(=O)c4ccc(NCC5CCOCC5)c([N+](=O)[O-])c4)c(Oc4cnc5[nH]ccc5c4)c3)CC2)CCC(C)(C)C1` [Compound 1-1, 4-(4-{[2-(2-methyl-4-trifluoromethylphenyl)-4,4-dimethylcyclohex-1-enyl]methyl}-piperazin-1-yl)-N-({3-nitro-4-[(tetrahydro-2H-pyran-4-ylmethyl)amino]phenyl}sulfonyl)-2-(1H-pyrrolo[2,3-b]pyridin-5-yloxy)-benzamide], in series [1], the “Relative tumor volume (mean ± SD)” value is listed as 2.1 ± 0.6, the T/C is on record as 40.4%, the tumour growth inhibition (TGI) was found to be 59.6% and the “Tumor volume (mean ± SD)” value is 350 ± 80 mm^3. Also, the “Weight change rate (mean ± SD)” value in series [1] is given as 8.20 ± 3.58%. The compound further yielded an IC50 in series [2] of 3.9 nM.
`Cc1cc(C(F)(F)F)ccc1C1=C(CN2CCN(c3ccc(C(=O)NS(=O)(=O)c4ccc(NC[C@H]5COCCO5)c([N+](=O)[O-])c4)c(Oc4cnc5[nH]ccc5c4)c3)CC2)CCC(C)(C)C1` [Compound 3-1]: in series [1], the “Relative tumor volume (mean ± SD)” value was determined as 1.3 ± 0.8, the T/C was 25.0%, the TGI is 75.0% and the “Tumor volume (mean ± SD)” value was found to be 213 ± 93 mm^3. Besides, the “Weight change rate (mean ± SD)” value in series [1] is recorded as 5.61 ± 3.61%. In addition, the IC50 in series [2] was found to be 1.9 nM. The IC50 in series [3] was 1.49 nM.
As for `Cc1cc(C(F)(F)F)ccc1C1=C(CN2CCN(c3ccc(C(=O)NS(=O)(=O)c4ccc(NC[C@H]5CCOC5)c([N+](=O)[O-])c4)c(Oc4cnc5[nH]ccc5c4)c3)CC2)CCC(C)(C)C1` [Compound 9-1, (R)-4-(4-{[2-(2-methyl-4-trifluoromethylphenyl)-4,4-dimethylcyclohex-1-enyl]methyl}-piperazin-1-yl)-N-({3-nitro-4-[((tetrahydrofuran-3-yl)methyl)amino]phenyl}sulfonyl)-2-(1H-pyrrolo[2,3-b]pyridin-5-yloxy)-benzamide], the IC50 in series [3] stood at 1.26 nM; in series [4], 219 nM.
For `Cc1cc(C(F)(F)F)ccc1C1=C(CN2CCN(c3ccc(C(=O)NS(=O)(=O)c4ccc(NC[C@@H]5CCOC5)c([N+](=O)[O-])c4)c(Oc4cnc5[nH]ccc5c4)c3)CC2)CCC(C)(C)C1` [Compound 10-1, (S)-4-(4-{[2-(2-methyl-4-trifluoromethylphenyl)-4,4-dimethylcyclohex-1-enyl]methyl}-piperazin-1-yl)-N-({3-nitro-4-[((tetrahydrofuran-3-yl)methyl)amino]phenyl}sulfonyl)-2-(1H-pyrrolo[2,3-b]pyridin-5-yloxy)-benzamide] the same measures were 1.1 nM and 102 nM.
As to `Cc1cc(C(F)(F)F)ccc1C1=C(CN2CCN(c3ccc(C(=O)NS(=O)(=O)c4ccc(NC[C@H]5CCCOC5)c([N+](=O)[O-])c4)c(Oc4cnc5[nH]ccc5c4)c3)CC2)CCC(C)(C)C1` [Compound 15-1, (R)-4-(4-{[2-(2-methyl-4-trifluoromethylphenyl)-4,4-dimethylcyclohex-1-enyl]methyl}-piperazin-1-yl)-N-({3-nitro-4-[((tetrahydropyran-3-yl)methyl)amino]phenyl}sulfonyl)-2-(1H-pyrrolo[2,3-b]pyridin-5-yloxy)-benzamide], the concentration for half-maximal inhibition (IC50) in series [3] came out at 1.53 nM; in series [4] it was 261 nM.
Regarding `Cc1cc(C(F)(F)F)ccc1C1=C(CN2CCN(c3ccc(C(=O)NS(=O)(=O)c4ccc(NC[C@@H]5CCCOC5)c([N+](=O)[O-])c4)c(Oc4cnc5[nH]ccc5c4)c3)CC2)CCC(C)(C)C1` [Compound 16-1, (S)-4-(4-{[2-(2-methyl-4-trifluoromethylphenyl)-4,4-dimethylcyclohex-1-enyl]methyl}-piperazin-1-yl)-N-({3-nitro-4-[((tetrahydropyran-3-yl)methyl)amino]phenyl}sulfonyl)-2-(1H-pyrrolo[2,3-b]pyridin-5-yloxy)-benzamide], the IC50 in series [3] was 2.07 nM; in series [4], 144 nM.
For the compound `Cc1cc(C(F)(F)F)ccc1C1=C(CN2CCN(c3ccc(C(=O)NS(=O)(=O)c4ccc(NC[C@@H]5CN(C(=O)C(C)C)CCO5)c([N+](=O)[O-])c4)c(Oc4cnc5[nH]ccc5c4)c3)CC2)CCC(C)(C)C1` [Compound 21-1, (R)-4-(4-{[2-(2-methyl-4-trifluoromethylphenyl)-4,4-dimethylcyclohex-1-enyl]methyl}-piperazin-1-yl)-N-({3-nitro-4-[((4-isobutyrylmorpholin-2-yl)methyl)amino]phenyl}sulfonyl)-2-(1H-pyrrolo[2,3-b]pyridin-5-yloxy)-benzamide], the IC50 in series [2] turned out to be 5.5 nM; in series [3], 0.72 nM; in series [4] it was 115 nM.
On to `Cc1cc(C(F)(F)F)ccc1C1=C(CN2CCN(c3ccc(C(=O)NS(=O)(=O)c4ccc(NC[C@H]5CN(S(C)(=O)=O)CCO5)c([N+](=O)[O-])c4)c(Oc4cnc5[nH]ccc5c4)c3)CC2)CCC(C)(C)C1` [Compound 22-1, (S)-4-(4-{[2-(2-methyl-4-trifluoromethylphenyl)-4,4-dimethylcyclohex-1-enyl]methyl}-piperazin-1-yl)-N-({3-nitro-4-[((4-(methylsulfonyl)morpholin-2-yl)methyl)amino]phenyl}sulfonyl)-2-(1H-pyrrolo[2,3-b]pyridin-5-yloxy)-benzamide], for which the IC50 in series [2] stood at 2.2 nM; in series [3], 1.31 nM; in series [4], 105 nM.
